According to US20100173959A1, “METHOD OF PROTECTING A PLANT PROPAGATION MATERIAL, A PLANT, AND/OR PLANT ORGANS” (SYNGENTA CROP PROTECTION, INC., priority 2007, published 2010):
Blank lines part the entries; values can stand above or below the compound they belong to.

How the values were obtained:
Myzus persicae [1] = experiment: B1: Myzus persicae (Green Peach Aphid), mixed population, sachet test; type: in vivo; details: 144 h, 12.5 ppm in 30% sucrose solution, 6 days after infestation, read-out: control of Myzus persicae (mortality, feeding activity)
Protocol: B1: Myzus persicae (Green Peach Aphid) (Mixed Population, Sachet Test)
Each well of a 24-well microtiter plate is filled with 0.6 ml 30% sucrose solution, containing 12.5 ppm of the test compounds. For producing the sachets, the wells are covered with stretched parafilm and infested with a mixed population of Myzus persicae. 6 days after the infestation, samples are checked for mortality (feeding activity).

Myzus persicae [2] = experiment: B2: Myzus persicae (Green Peach Aphid), mixed population, systemic/feeding activity, curative; type: in vivo; details: 144 h, roots of infested pea seedlings in test solution of 6 ppm, 6 days after introduction, read-out: control of Myzus persicae (mortality)
Source text: B2: Myzus persicae (Green Peach Aphid) (Mixed Population, Systemic/Feeding Activity, Curative)
Roots of pea seedlings, infested with an aphid population of mixed ages, are placed directly in the test solutions of 6 ppm. 6 days after introduction, samples are checked for mortality and special effects on the plant.

[3] = test system: African bean aphid (Aphis craccivora); experiment: Example 1: sugarbeet seed treatment, reduction of African bean aphid; type: in vivo; details: infested 14 days after sowing, counted 7 days after infestation
Protocol: (§1) Sugarbeet seeds are treated with P1.1, P1.5, P1.6, P1.8, P1.32 or P1.38 at rates of 0.1, 0.3 and 0.6 mg a.i./seed. The seeds are sown into 9-cm pots filled with 280 mL of soil. After placing the seeds on the soil surface they are covered with 50 mL of soil. Before and during the bioassays, the plants are grown in greenhouse chambers at 25° C. during daytime, 23° C. during night, 50-60% rH, a 14-hour photoperiod and artificial lighting when natural light fell below 20 kLux. After sowing, the pots are transferred to the greenhouse chambers, set up in a random fashion and are irrigated as necessary from above. After 14 days, the plants are infested with African bean aphid (Aphis craccivora) by placing one infested pea seedling containing approximately 150 aphids of a population of mixed developmental stages onto each plant. Seven days after infestation, the number of aphids is counted per plant. Each treatment group is replicated 10 times. Each replicate contains 1 plant.

[4] = test system: cabbage aphid (Myzus persicae); experiment: Example 2: Chinese cabbage seed treatment, reduction of cabbage aphid; type: in vivo; details: infested 14 days after sowing, counted 7 days after infestation
Protocol: as §1, with “Chinese cabbage” for “Sugarbeet”, “of” for “of 0.1,”, “cabbage” for “African bean”, “(Myzus persicae)” for “(Aphis craccivora)”

Compound: COc1cccc2c1C(N)=NS2(=O)=O [P1.1, 3-Amino-4-methoxybenzo[d]isothiazole-1,1-dioxide]
- mortality at 12.5 ppm (Myzus persicae [1]): 100%
- mortality at 6 ppm (Myzus persicae [2]): 100%
- Efficacy, % (reduction of aphids compared to untreated control plants) ([3]; 0.1 mg/seed): 41%
- Efficacy, % (reduction of aphids compared to untreated control plants) ([3]; 0.3 mg/seed): 69%
- Efficacy, % (reduction of aphids compared to untreated control plants) ([3]; 0.6 mg/seed): 92%
- Efficacy, % (reduction of aphids compared to untreated control plants) ([4]; 0.3 mg/seed): 10%
- Efficacy, % (reduction of aphids compared to untreated control plants) ([4]; 0.6 mg/seed): 45%

- melting point: 242 to 245 °C
Compound: COc1cccc2c1C(NC(C)=O)=NS2(=O)=O [P1.8, 3-Acetylamino-4-methoxybenzo[d]isothiazole-1,1-dioxide]
- Efficacy, % (reduction of aphids compared to untreated control plants) ([3]; 0.1 mg/seed): 8%
- Efficacy, % (reduction of aphids compared to untreated control plants) ([3]; 0.3 mg/seed): 72%
- Efficacy, % (reduction of aphids compared to untreated control plants) ([3]; 0.6 mg/seed): 95%
- Efficacy, % (reduction of aphids compared to untreated control plants) ([4]; 0.3 mg/seed): 0%
- Efficacy, % (reduction of aphids compared to untreated control plants) ([4]; 0.6 mg/seed): 28%

Compound: NC1=NS(=O)(=O)c2cccc(Cl)c21 [P1.5, 3-Amino-4-chlorobenzo[d]isothiazole-1,1-dioxide]
- mortality at 12.5 ppm (Myzus persicae [1]): 100%
- mortality at 6 ppm (Myzus persicae [2]): 100%
- Efficacy, % (reduction of aphids compared to untreated control plants) ([3]; 0.1 mg/seed): 87%
- Efficacy, % (reduction of aphids compared to untreated control plants) ([4]; 0.3 mg/seed): 11%
- Efficacy, % (reduction of aphids compared to untreated control plants) ([4]; 0.6 mg/seed): 64%
